Laboratory results reported in US11292812B2, “3′3′-cyclic dinucleotides” (Institute of Organic Chemistry and Biochemistry, ASCR, V.V.I, priority 2018, dated 2022).

How the values were obtained:
[1] = biological target: T1, AQ STING (G230A-R293Q) (Homo sapiens, UniProt Q86WV6, G230A/H232R/R293Q); test: Differential Scanning Fluorimetry with AQ STING; format: binding; settings: thermal shift, truncated human AQ STING 0.1 mg/ml, 150 μM CDN; read-out: DSF ΔTm AQ STING
T1 construct: truncated human WT STING or AQ STING (amino acid residues 140-343); 8xHis (N, cleaved yes); SUMO (N, cleaved yes); made in house; host or cells: E. coli Rosetta-gami B (DE3)
Description: (§1) Purified PCR products were cleaved with restriction enzymes BamHI (cat. #R0136S, NEB, Ipswich, USA) and NotI (cat. #R0189S, NEB, Ipswich, USA) and cloned into the pSUMO vector linearized with the identical enzymes.
(§2) DNase I (cat. #D5025, Sigma Aldrich, Czech Republic) and RNase A (cat. #R6513, Sigma Aldrich, Czech Republic) were added (final concentration 50 μg/ml) together with MgCl2 (final concentration 5 mmol·l^−1) to the homogenate and bacteria were lysed using French Press G-M™ High-Pressure Cell Press Homogenizer (1500 psi, 3 cycles). […] The resin was poured into a chromatography column, washed with 50 ml buffer A (50 mmol·l^−1 TrisCl (pH 8.0), 800 mmol·l^−1 NaCl, 3 mmol·l^−1 β-mercaptoethanol; 10% glycerol; 20 mmol·l^−1 imidazole) and 8-His-SUMO tagged STING proteins were eluted with 15 ml buffer A containing 300 mmol·l^−1 imidazole. […] Proteins were concentrated with Amicon® Ultra-15 10 K device (cat. #UFC901008, Merck Millipore, Billerica, USA) and flash frozen in liquid N2.
(§3) 20 μL solutions of the reaction mixtures were pipetted in triplicates into 96 well optical reaction plates and thermal denaturation of samples were performed on real time PCR cycler (LightCycler® 480 Instrument II—Roche, Basel, Switzerland). The first derivative of the thermal denaturation curves was performed to calculate denaturing temperatures of STING-CDN complexes and STING apoproteins. The thermal shift for each CDN was calculated by subtracting the average denaturing temperature of STING apoprotein from the average denaturing temperature of STING CDN complex.

[2] = biological target: T2, WT STING (Homo sapiens, UniProt Q86WV6, H232R); test: Digitonin assay using 293T wtSTING-FL reporter cells; format: cell-based; settings: 293T wtSTING-FL cells, ISRE firefly luciferase reporter, digitonin buffer 30 minutes, then 5 hours
Source text: Two complementary oligonucleotides of the sequence […] […] […] […] […] […] […] The oligonucleotides were mixed in equal molar amounts, hybridized, and cleaved by restriction endonucleases HindIII (cat. #. R0104S, NEB, Ipswich, USA) and BglII (cat. #R0144S, NEB, Ipswich, USA). Ultimately, they were ligated into plasmid pGL4.27 (cat. #E6651, Promega, Madison, USA) linearized with the same enzymes. As result the sequence with four ISRE sites was placed upstream of the minimum promoter of firefly luciferase reporter gene.
After 5 minutes incubation at room temperature (RT), 250 μL of the mixture was added dropwise to the cells in one well. Cells were incubated 36 hours at 37° C. with 5% CO2, and then detached with 0.05% Trypsin and 0.22 g/L EDTA (both cat. #L0941, Biowest, Riverside, USA).
Transfected cells were seeded onto poly-D-lysine coated six well plates at density 50,000 cells per 1 cm^2 in DMEM medium with high glucose containing 10% heat inactivated FBS, 30 μg/mL blasticidin (cat. #ant-bl-05, InvivoGen, San Diego, USA), 0.06 mg/ml Penicillin G and 0.1 mg/ml Streptomycin Sulfate (both cat. #. L0018, Biowest, Riverside, USA). The medium was replenished every 3-4 days until visible colonies of cells resistant to blasticidin were formed.
Blasticidin resistant cells stably expressing WT STING were further transfected with pGL64.27-4×ISRE plasmid following the same procedure as described above. […] Homogeneous culture of stably double transfected cells was prepared by limiting dilution of cells in 96 well plates and wells with cells were selected that originated from a single cell.
The medium was removed next day and three fold serial dilutions of compounds in Digitonin buffer containing 50 mmol·l^−1 HEPES (cat. #H3375, Sigma Aldrich, Czech Republic) pH 7.0, 100 mmol·l^−1 KCl, 3 mmol·l^−1 MgCl2, 0.1 mmol·l^−1 DTT (cat. #D0632, Sigma Aldrich, Czech Republic), 85 mmol·l^−1 Sucrose (cat. #S7903, Sigma Aldrich, Česká Republika), 0.2% BSA (cat. #A2153, Sigma Aldrich, Czech Republic), 1 mmol·l^−1 ATP (cat. #A1852, Sigma Aldrich, Czech Republic), 0.1 mmol·l^−1 GTP (cat. #G8877, Sigma Aldrich, Czech Republic), and 10 μg/mL Digitonin A (cat. #D141, Sigma Aldrich, Czech Republic) were added to the cells. The buffer was removed after 30 minutes incubation at 37° C. with 5% CO2, the cells were washed once with 100 μl of cultivation medium, and 100 μl of medium was added to each well. The plates with cells were incubated for 5 hours at 37° C. with 5% CO2, 50 μl of the medium was removed and 30 μl of ONE-Glo™ Luciferase Assay System reagent (cat. #E6120, Promega, Madison, USA) was added to each well. Luminesce was read on Synergy H1 (Biotek, Winooski, USA).
Target sequence in this assay (Q86WV6 whole entry H232R): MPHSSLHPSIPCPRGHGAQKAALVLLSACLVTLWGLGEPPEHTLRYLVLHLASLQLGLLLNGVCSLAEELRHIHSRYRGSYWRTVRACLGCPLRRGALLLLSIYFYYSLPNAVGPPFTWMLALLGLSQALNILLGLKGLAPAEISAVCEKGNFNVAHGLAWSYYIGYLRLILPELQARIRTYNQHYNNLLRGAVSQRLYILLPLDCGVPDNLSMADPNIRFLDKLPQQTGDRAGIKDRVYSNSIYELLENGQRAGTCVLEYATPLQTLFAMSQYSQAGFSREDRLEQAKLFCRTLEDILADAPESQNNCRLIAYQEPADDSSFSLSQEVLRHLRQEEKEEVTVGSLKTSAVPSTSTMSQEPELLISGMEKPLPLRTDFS

[3] = biological target: T2, WT STING; test: Differential Scanning Fluorimetry with WT STING; format: binding; set-up: truncated human WT STING or AQ STING (amino acid residues 140-343); 8xHis (N, cleaved yes); SUMO (N, cleaved yes); made in house; host or cells: E. coli Rosetta-gami B (DE3); settings: thermal shift, truncated human WT STING 0.1 mg/ml, 150 μM CDN; read-out: DSF ΔTm WT STING
Description: as §1, §2, §3
Target sequence in this assay (Q86WV6 140-343 H232R): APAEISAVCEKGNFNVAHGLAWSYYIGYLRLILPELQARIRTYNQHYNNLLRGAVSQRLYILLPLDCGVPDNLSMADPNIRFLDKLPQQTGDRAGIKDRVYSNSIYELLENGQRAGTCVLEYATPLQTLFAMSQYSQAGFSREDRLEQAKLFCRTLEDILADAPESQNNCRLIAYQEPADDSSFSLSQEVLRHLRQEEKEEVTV

T1 sequence (Q86WV6 140-343 G230A/H232R/R293Q): as the sequence (Q86WV6 140-343 H232R) above, with G91A, R154Q counted along it

Row | Structure (SMILES) | ΔTm at 150 µM [1] | EC50 [2] | ΔTm at 150 µM [3]
1 | Nc1nc2c(ncn2[C@@H]2O[C@@H]3COP(=O)(O)OC4C(F)[C@H](n5cnc6c(N)ncnc65)O[C@@H]4COP(=O)(O)COC3C2O)c(=O)[nH]1 (stereo partly drawn) [Example 4, 2-amino-9-((2R,3R,3aR,7aR,9R,10R,10aS,15aR)-2-(6-amino-9H-purin-9-yl)-3-fluoro-5,10,13-trihydroxy-5,13-dioxidodecahydro-2H-difuro[3,2-d:3′,2′-k][1,3,7,10]tetraoxa[2,8]diphosphacyclotridecin-9-yl)-1,9-dihydro-6H-purin-6-one] | 13.6 °C | 50 nM | 4.8 °C
2 | Nc1nc2c(ncn2[C@@H]2O[C@@H]3COP(=O)(O)OC4C(O)[C@H](n5cnc6c(N)ncnc65)O[C@@H]4COP(=O)(O)COC3C2F)c(=O)[nH]1 (stereo partly drawn) [Example 11, 2-amino-9-((2R,3R,3aS,7aR,9R,10R,10aR,15aR)-2-(6-amino-9H-purin-9-yl)-10-fluoro-3,5,13-trihydroxy-5,13-dioxidodecahydro-2H-difuro[3,2-d:3′,2′-k][1,3,7,10][tetraoxa][2,8]diphosphacyclotridecin-9-yl)-1,9-dihydro-6H-purin-6-one] | 11.3 °C | 50 nM | 7.3 °C
3 | Nc1ncnc2c1ncn2[C@@H]1O[C@@H]2COP(=O)(O)OC3C(F)[C@H](n4cnc5c(N)ncnc54)O[C@@H]3COP(=O)(O)COC2C1F (stereo partly drawn) [Example 13, (2R,3R,3aR,7aR,9R,10R,10aR,15aR)-2,9-bis(6-amino-9H-purin-9-yl)-3,10-difluoro-5,13-dihydroxydecahydro-2H-difuro[3,2-d:3′,2′-k][1,3,7,10]tetraoxa[2,8]diphosphacyclotridecine 5,13-dioxide] | 16.1 °C | 12 nM | 9.4 °C
4 | Nc1nc2c(ncn2[C@@H]2O[C@@H]3COP(=O)(O)OC4C(F)[C@H](n5cnc6c(=O)[nH]c(N)nc65)O[C@@H]4COP(=O)(O)COC3C2F)c(=O)[nH]1 (stereo partly drawn) [Example 16, 9,9′-((2R,3R,3aR,7aR,9R,10R,10aR,15aR)-3,10-difluoro-5,13-dihydroxy-5,13-dioxidodecahydro-2H-difuro[3,2-d:3′,2′-k][1,3,7,10]tetraoxa[2,8]diphosphacyclotridecine-2,9-diyl)bis(2-amino-1,9-dihydro-6H-purin-6-one)] | 10.7 °C | 300 nM | 3.1 °C
5 | Nc1nc2c(ncn2[C@@H]2O[C@@H]3COP(=O)(O)COC4C(O)[C@H](n5cnc6c(N)ncnc65)O[C@@H]4COP(=O)(O)OC3C2F)c(=O)[nH]1 (stereo partly drawn) [Example 5, 2-amino-9-((2R,3R,3aR,7aR,9R,10R,10aS,15aR)-9-(6-amino-9H-purin-9-yl)-3-fluoro-5,10,13-trihydroxy-5,13-dioxidodecahydro-2H-difuro[3,2-d:3′,2′-k][1,3,7,10]tetraoxa[2,8]diphosphacyclotridecin-2-yl)-1,9-dihydro-6H-purin-6-one] | 12 °C | 100 nM | 4.1 °C
6 | Nc1nc2c(ncn2[C@@H]2O[C@@H]3COP(=O)(O)OC4C(F)[C@H](n5cnc6c(N)ncnc65)O[C@@H]4COP(=O)(O)COC3C2F)c(=O)[nH]1 (stereo partly drawn) [Example 12] | 17.3 °C | 20 nM | 9.3 °C
